# System: adenocarcinoma of the prostate
# Experiment: Treatment of human patients with prostate cancer (case reports)
# Assay type: in vivo
# Conditions: general statement
# Experimental: Diseases that can be beneficially influenced by the present dosage form include in particular benign prostate hyperplasy, cancer, leukemias, cystic fibrosis, AIDS, kidney and liver diseases, thalassemia and urea cycle disorders. For example, the treatment of an adenocarcinoma of the prostate can be carried out by administering twice daily, e.g. in the morning and evening, a pharmaceutical tablet formulation containing 250 mg of sodium 4-phenylbutyrate. […] Treatment may be continued for several month or years until a satisfactory effect is observed or the patient is total free of the disease.
# Following are descriptions of treatments and test results obtained from human patients.
# Because of progressive bone pain they underwent bilateral orchiectomy in February 1996. They became free of pain until November 1998 when they again suffered bone pain mainly in their back. They were than treated orally twice daily with 250 mg of sodium phenylbutyrate retard tablets according to Example 1. Four weeks later they were free of pain. They stayed on this medication until June 2001 without any other symptoms of the prostate carcinoma. The PSA and the alkaline phosphatase were always within normal limits.
# They stay now in complete unmaintained remission for 12 months.
# This patient presented in March 1997 with a pathological fracture of the 8th thoracic vertebra caused by metastatic destruction. […]
compound,measurement,setting,value
O=C([O-])CCCc1ccccc1.[Na+] [sodium 4-phenylbutyrate],therapeutic effect (pain),"adenocarcinoma of the prostate, tablet with 250 mg twice daily, after treatment of about one month",pain disappears
same,side effects,over a long period of treatment,no side effects
